Measured values from PMC11648915, “Identification and development of TRPM4 antagonists to counteract neuronal excitotoxicity” (iScience, 2024).
Like-named read-outs stand apart in the source and are kept apart here. Values belong to the molecule of their own block, whether it stands above or below them.

Tests used:
human TRPM4 = human TRPM4 (Homo sapiens, UniProt Q8TD43); experiment: Inside-out patch clamp, human TRPM4; format: cell-based; set-up: Human TRPM4 (UniProtKB: Q8TD43-1) and mouse Trpm4 (UniProtKB: Q7TN37-1) were amplified via PCR; expressed in transfected cells; details: inside-out patch clamp configuration
human TRPM4, sequence (Q8TD43 whole entry): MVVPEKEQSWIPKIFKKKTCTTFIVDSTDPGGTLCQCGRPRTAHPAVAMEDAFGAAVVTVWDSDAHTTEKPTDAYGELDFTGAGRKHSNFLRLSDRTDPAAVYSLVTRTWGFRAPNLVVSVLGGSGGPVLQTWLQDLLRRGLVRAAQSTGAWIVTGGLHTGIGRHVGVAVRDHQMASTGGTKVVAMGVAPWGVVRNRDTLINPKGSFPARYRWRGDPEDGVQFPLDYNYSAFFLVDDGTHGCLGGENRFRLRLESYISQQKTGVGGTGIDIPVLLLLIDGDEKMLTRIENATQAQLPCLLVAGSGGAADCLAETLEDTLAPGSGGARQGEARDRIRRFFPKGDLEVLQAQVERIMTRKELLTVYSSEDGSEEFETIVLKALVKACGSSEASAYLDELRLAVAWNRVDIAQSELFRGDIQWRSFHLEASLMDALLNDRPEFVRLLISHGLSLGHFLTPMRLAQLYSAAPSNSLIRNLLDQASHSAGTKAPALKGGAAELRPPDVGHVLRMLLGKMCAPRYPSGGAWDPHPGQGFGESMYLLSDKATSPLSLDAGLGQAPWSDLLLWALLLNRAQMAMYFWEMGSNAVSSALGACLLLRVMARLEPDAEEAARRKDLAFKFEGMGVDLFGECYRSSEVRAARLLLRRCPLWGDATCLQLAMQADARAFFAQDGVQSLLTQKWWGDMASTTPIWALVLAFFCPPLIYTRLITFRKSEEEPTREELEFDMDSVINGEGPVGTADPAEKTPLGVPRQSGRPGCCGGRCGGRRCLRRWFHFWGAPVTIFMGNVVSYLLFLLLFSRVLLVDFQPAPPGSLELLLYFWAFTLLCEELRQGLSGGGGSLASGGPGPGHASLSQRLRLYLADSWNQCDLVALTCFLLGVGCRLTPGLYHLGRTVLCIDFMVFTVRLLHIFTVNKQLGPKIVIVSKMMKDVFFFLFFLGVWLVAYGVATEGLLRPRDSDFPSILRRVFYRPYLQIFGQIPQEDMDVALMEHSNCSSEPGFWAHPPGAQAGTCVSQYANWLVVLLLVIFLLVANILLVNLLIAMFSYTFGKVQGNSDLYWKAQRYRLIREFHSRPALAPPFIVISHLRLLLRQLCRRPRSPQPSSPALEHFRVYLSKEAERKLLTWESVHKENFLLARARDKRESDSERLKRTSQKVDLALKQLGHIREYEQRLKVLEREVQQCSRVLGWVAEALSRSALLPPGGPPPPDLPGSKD
Procedure: Patch clamp recordings were conducted using an EPC10 patch clamp amplifier and Patchmaster software (HEKA, Germany). An Ag/AgCl wire served as the reference electrode in all experiments. […] Liquid junction potential was compensated before achieving gigaseal formation. All experiments were conducted at room temperature. Whole-cell currents were recorded in transiently transfected HEK293 cells expressing either wildtype human TRPM4, TRPM4-L907A, or TRPM4-S924A. Recordings involved a 400 ms increasing voltage ramp from –100 mV to +100 mV, initiated from a holding potential of 0 mV. The interval between each sweep was 2 seconds, with data sampled at 5 kHz. […] To identify TRPM4 currents, extracellular Na^+ was replaced with equimolar NMDG^+. […] Similar to whole-cell recordings, a 400 ms increasing voltage ramp from –100 mV to +100 mV was applied from a holding potential of 0 mV. The interval between sweeps was 2 seconds, and data were sampled at 5 kHz. […] TRPM4 currents were activated by 500 μM CaCl2 and deactivated by 10 mM EGTA, both added to the intracellular solution. Ca^2+ activation curves were fitted using a likelihood maximization algorithm to estimate the parameters for the sigmoidal fitting curves y-maximum, slope and midpoint as part of the R package sicegar (V0.2.4).

[1] = system: hsTRPM4 L907A, S924A and L907A/S924A mutants; experiment: Whole-cell patch clamp of wild-type and binding-site mutant hsTRPM4; details: whole-cell voltage clamp, HEK293T
Text: Initially, we assessed the basic properties of the hsTRPM4 mutants using whole-cell patch clamp electrophysiology.

[2] = In vivo pharmacokinetics after single i.p. or i.v. dose; details: female, C57BL/6J, mouse
Procedure: Next, to assess in vivo availability of the Series 1–3 compounds, we evaluated drug metabolism and pharmacokinetics (DMPK). We measured compound concentrations in plasma, heart, and brain at several time points after intraperitoneal (i.p.) or intravenous (i.v.) single-dose injections.
Half-life and bioavailability were calculated by noncompartmental analysis using the R package PK[84] (v1.3-6).

mouse TRPM4 = molecular target: T1, mouse TRPM4 (Mus musculus, UniProt Q7TN37); experiment: Inside-out patch clamp, mouse TRPM4; format: cell-based; details: inside-out patch clamp configuration
T1 construct: Human TRPM4 (UniProtKB: Q8TD43-1) and mouse Trpm4 (UniProtKB: Q7TN37-1) were amplified via PCR; eGFP (C); expressed in transfected cells
T1 sequence (Q7TN37 whole entry): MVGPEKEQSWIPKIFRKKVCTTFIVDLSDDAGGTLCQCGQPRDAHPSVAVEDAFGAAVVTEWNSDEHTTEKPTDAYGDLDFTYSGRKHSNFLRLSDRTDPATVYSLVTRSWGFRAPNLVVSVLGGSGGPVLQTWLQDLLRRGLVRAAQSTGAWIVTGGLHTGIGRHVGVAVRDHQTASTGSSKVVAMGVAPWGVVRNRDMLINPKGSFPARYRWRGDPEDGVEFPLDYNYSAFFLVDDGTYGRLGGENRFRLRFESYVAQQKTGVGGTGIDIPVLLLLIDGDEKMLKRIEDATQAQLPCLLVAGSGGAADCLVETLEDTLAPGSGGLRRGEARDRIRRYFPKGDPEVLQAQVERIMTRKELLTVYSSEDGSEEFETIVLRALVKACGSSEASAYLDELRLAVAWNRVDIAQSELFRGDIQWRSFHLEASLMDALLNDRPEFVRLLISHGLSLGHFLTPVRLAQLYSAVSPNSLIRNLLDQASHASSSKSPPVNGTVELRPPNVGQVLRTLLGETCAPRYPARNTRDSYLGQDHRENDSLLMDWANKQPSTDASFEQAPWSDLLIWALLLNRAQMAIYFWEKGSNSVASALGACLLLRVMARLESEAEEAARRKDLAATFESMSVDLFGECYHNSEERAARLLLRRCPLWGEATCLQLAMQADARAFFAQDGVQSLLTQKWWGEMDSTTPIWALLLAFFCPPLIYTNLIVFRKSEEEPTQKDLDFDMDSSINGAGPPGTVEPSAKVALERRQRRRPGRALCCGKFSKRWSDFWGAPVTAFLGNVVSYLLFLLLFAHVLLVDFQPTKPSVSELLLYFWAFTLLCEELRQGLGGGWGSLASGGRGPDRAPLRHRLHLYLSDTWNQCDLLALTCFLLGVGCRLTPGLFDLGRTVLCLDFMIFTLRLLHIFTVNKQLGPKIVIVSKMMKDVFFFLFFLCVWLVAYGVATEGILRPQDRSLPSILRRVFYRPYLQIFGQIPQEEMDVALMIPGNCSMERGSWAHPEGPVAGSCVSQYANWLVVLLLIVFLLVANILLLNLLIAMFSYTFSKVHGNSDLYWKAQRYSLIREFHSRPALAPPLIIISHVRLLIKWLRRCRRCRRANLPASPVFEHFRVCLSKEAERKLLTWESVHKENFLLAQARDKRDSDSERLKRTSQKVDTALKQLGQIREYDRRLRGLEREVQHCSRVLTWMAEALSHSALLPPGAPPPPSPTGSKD

[3] = Parallel Artificial Membrane Permeability Assay (PAMPA); format: in vitro ADME; details: pH not given
Procedure: Parallel Artificial Membrane Permeability Assay (PAMPA) was performed using artificial lipid membrane layers to assess passive permeability of the test compound. Test compounds were diluted to 200 μM in system buffer at pH 5.0, 6.2 and 7.4. The solutions were filtered and 150 μL transferred to a High Sensitivity 96 well UV plate. This was analysed by UV as the reference plate. A 200 μL sample of the 200 μM solution was transferred to the ‘donor’ plate of the PAMPA pIon sandwich plate system. 200 μL of acceptor sink buffer was transferred to the ‘acceptor’ plate which had been previously treated with GIT-O lipid solution across the well filter. Donor and acceptor plates were sandwiched and kept in a humid environment at room temperature for 16 hours. On completion of the incubation the donor and acceptor plates were separated. 150 μL of solution was transferred from each of the donor and acceptor PAMPA sandwich plates into High Sensitivity 96 well UV plates for analysis by UV. at different time points. The concentration of the compound in the acceptor compartment was determined using mass spectrometry. The permeability coefficient (Papp) was calculated based on the rate of appearance of the compound in the acceptor compartment (nm/s).

CYP 1A2 = molecular target: T2, CYP 1A2 (Homo sapiens, UniProt P05177); experiment: CYP inhibition assay 1A2; format: in vitro ADME
T2 construct: purchased BD Gentest
T2 sequence (P05177 1-516): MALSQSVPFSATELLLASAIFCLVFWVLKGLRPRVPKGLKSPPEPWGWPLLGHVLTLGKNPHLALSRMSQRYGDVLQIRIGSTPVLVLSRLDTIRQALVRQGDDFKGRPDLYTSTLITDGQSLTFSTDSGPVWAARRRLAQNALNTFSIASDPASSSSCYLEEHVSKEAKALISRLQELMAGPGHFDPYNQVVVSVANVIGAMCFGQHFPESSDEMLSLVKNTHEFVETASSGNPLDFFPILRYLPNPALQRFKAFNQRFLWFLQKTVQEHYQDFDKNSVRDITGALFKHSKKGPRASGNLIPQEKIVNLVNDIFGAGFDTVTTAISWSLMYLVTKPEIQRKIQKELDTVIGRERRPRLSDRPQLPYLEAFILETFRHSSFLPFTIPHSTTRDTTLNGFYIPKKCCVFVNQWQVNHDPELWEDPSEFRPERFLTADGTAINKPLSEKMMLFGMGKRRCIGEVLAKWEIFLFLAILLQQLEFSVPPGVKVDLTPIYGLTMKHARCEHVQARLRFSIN
Procedure: (§1) The half-maximal inhibitory concentration (IC50) for cytochrome P450 (CYP) enzymes was determined using an in vitro enzyme inhibition assay. Recombinant CYP enzymes or human liver microsomes from BD Gentest, in 0.1 M phosphate buffer pH 7.4, containing native CYP enzymes were incubated with the test compound at various concentrations (1, 3, 10 and 30 μM) and containing 0.5% DMSO and 0.1% BSA final concentrations. 1 mM of NADPH cofactor was added and the reaction was started by a rapid increase of temperature until 37°C.

CYP 2C19 = molecular target: T3, CYP 2C19 (Homo sapiens, UniProt P33261); experiment: CYP inhibition assay 2C19; format: in vitro ADME
T3 construct: purchased BD Gentest
T3 sequence (P33261 whole entry): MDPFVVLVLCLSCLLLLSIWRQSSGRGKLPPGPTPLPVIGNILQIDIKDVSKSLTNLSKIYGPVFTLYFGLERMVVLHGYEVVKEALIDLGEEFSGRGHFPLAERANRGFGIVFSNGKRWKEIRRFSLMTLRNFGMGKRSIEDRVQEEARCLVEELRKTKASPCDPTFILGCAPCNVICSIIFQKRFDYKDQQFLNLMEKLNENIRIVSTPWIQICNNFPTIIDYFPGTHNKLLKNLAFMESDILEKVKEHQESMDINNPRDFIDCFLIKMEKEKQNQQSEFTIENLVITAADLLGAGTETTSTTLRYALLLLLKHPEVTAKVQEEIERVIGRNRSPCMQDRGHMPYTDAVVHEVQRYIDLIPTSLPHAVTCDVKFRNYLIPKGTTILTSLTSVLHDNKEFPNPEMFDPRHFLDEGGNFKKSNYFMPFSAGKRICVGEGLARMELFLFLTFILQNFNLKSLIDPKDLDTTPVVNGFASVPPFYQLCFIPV
Procedure: as §1

CYP 2C9 = molecular target: T4, CYP 2C9 (Homo sapiens, UniProt P11712); experiment: CYP inhibition assay 2C9; format: in vitro ADME
T4 construct: purchased BD Gentest
T4 sequence (P11712 whole entry): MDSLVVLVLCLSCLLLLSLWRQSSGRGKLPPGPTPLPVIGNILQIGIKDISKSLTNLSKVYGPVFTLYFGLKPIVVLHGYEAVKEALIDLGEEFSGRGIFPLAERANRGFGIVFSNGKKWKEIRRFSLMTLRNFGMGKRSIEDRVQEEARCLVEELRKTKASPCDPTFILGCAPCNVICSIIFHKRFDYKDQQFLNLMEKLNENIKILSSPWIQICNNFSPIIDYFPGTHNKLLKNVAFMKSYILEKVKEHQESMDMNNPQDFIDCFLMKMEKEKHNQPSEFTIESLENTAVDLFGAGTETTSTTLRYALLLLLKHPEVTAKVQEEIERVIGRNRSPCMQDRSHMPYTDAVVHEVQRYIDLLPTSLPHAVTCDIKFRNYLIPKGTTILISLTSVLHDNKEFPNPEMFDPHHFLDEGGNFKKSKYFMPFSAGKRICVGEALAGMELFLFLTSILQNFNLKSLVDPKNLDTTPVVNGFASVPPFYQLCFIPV
Procedure: as §1

Structure (SMILES): Fc1cccc(-c2ccccc2NCc2nc3ccccc3o2)c1 [CMP343]
Activity on human TRPM4 (human TRPM4): almost completely blocked | Current inhibition of hsTRPM4 L907A and S924A mutants versus wildtype [1]: significantly reduced current inhibition in at least one hsTRPM4 mutant variant | half-life ([2]; brain, ip, read-out: Brain half-life (converted)): 2.1 h | half-life ([2]; brain, iv, read-out: Brain half-life (converted)): 0.2 h | half-life ([2]; heart, ip, read-out: Heart half-life (converted)): 15.3 h | half-life ([2]; heart, iv, read-out: Heart half-life (converted)): 2.1 h | half-life ([2]; plasma, ip, read-out: Plasma half-life (converted)): 4.3 h | half-life ([2]; plasma, iv, read-out: Plasma half-life (converted)): 0.3 h | Activity on mouse TRPM4 (mouse TRPM4): reduced activity on mouse TRPM4 compared to human TRPM4 | Activity on mouse TRPM4 (mouse TRPM4; listed as 343): significantly less effective on mouse TRPM4

Structure (SMILES): Fc1ccccc1-c1ccccc1NCc1nc2ccccc2o1 [CMP353]
PAMPA perm. [3]: low sensitivity | IC50 (CYP 1A2): 1 µM

IC50 (CYP 2C19): 6.2 µM | IC50 (CYP 2C9): 14.9 µM | IC50 (CYP 1A2): 1.3 µM
Structure (SMILES): c1csc(-c2ccccc2NCc2nc3ccccc3o2)c1 [CMP355]

Papp at 16 h, 200 μM ([3]; PAMPA, read-out: PAMPA perm.): 37.4 ×10⁻⁶ cm/s
Structure (SMILES): Nc1ccccc1-c1ccccc1NCc1nc2ccccc2o1 [CMP457]
